Test results taken from PMC11110755, “Structure-based virtual screening of unbiased and RNA-focused libraries to identify new ligands for the HCV IRES model system” (RSC Medicinal Chemistry, 2024).
“And” between values parts separate entries of the source, which are not always exact repeats. Identical values can stand only once. “Also recorded” adds a separate entry of the source. Like-named read-outs stand apart in the source and are kept apart here. One block for each molecule: values may come before it.

Experiments:
HCV IRES subdomain IIa [1] = assay type: binding, hepatitis C virus; conditions: for Kd / MST KD: 30 nM Cy5-labelled RNA, 10 mM HEPES pH 7.0, 2 mM MgCl2, 2% DMSO, ≥ = no saturation, n.b. no binding observed; for Kd: read-out: MST KD; for binding to HCV IRES subdomain IIa (MST-shift), in words: pre-screening 1000 (or 316), 100, 10 and 0.001 μM
Description: For the MST assay, the same sequence of the two stranded HCV IRES subdomain IIa as for the FRET assay was used. One strand was 5′-Cy5-labelled and the other strand was unmodified ([…], Cy5-[…], Biomers.net GmbH). All samples containing labelled RNA were treated under light protection. MST experiments were performed on a Monolith NT.115 from NanoTemper Technologies using standard uncoated capillaries. The strands were annealed by heating to 75 °C in MST buffer (10 mM HEPES pH 7.0, 2 mM MgCl2) and cooled down to room temperature for at least 20 min. The 5′-Cy5-labelled HCV IRES domain IIa RNA was diluted to 30 nM in MST buffer and supplemented with compounds 8–25 in appropriate concentrations. Compounds 4 and 5 were used as positive controls. For the initial screening, compounds were added to final concentrations of 1000 (or 316 if limited by solubility), 100, 10 and 0.001 μM (Fig. S5 ^†). If a concentration-dependent shift of thermophoresis was observed, KD-values were determined using concentrations ranging from 1 mM (if permitted by solubility, otherwise starting from 316 or 100 μM) to 0.01 μM in a 3.16-fold (semi-logarithmic) dilution series. For each experiment, one DMSO negative control was carried out. Final DMSO concentration was always 2%.
(§1) Off-target counter screens by MST were performed as described previously.[31,84] Briefly, the 5′-Cy5-labelled Tte preQ1-Riboswitch aptamer domain (Biomers.net GmbH) was heated to 75 °C for 5 min, cooled down to room temperature for at least 20 min and then diluted to 20 nM in MST buffer (50 mM Tris-HCl pH 7.5, 100 mM KCl, 25 mM MgCl2) and supplemented with compounds 4, 5, 8–13, 18, 21, 22 and 26 to final concentrations of 1000, 100, 10 and 0.001 μM. PreQ1 was used as a positive control. The 5′-Cy5-labelled B. angulatum SAM VI-Riboswitch aptamer domain (Eurofins Genomics GmbH) was heated to 75 °C for 5 min, cooled down to room temperature for at least 20 min and then diluted to 20 nM in MST buffer (50 mM Tris-HCl pH 7.5, 100 mM KCl, 25 mM MgCl2) and supplemented with compounds 5, 9 and 28 to final concentrations of 1000, 100, 10 and 0.001 μM. SAM was used as a positive control. For each experiment, one DMSO negative control was carried out. The final DMSO concentration was 2%. All measurements were performed at least as duplicates for pre-screening and triplicates for KD-determination. MST measurements were analyzed from signals after 18 s laser on-time using the MO.Affinity Analysis software (version 2.3) and exported for statistical analysis and plotting in GraphPad Prism (version 8.0.1., GraphPad Software, Boston, Massachusetts USA, https://www.graphpad.com).

HCV IRES subdomain IIa [2] = assay: FRET assay monitoring ligand-induced conformational change of Cy3/Cy5-labelled HCV IRES subdomain IIa; assay type: biochemical, hepatitis C virus; conditions: for FRET-signal change / conformational change of HCV IRES subdomain IIa, in words: pre-screening 1000, 100, 10 and 0.001 μM
Description: For the FRET assay, a two stranded HCV IRES subdomain IIa carrying a 5′-Cy3-label on one and 5′-Cy5-label on the other strand (Cy3-[…], Cy5-[…], Biomers.net GmbH) was used as described previously.[22,53] All samples containing labelled RNA were treated under light protection. FRET experiments were performed on a Tecan Spark 10 M plate reader (excitation/emission: 480/670 nm) using black half area 96 well microplates (Greiner Bio-One), based on a protocol by Zhou et al.[53] The 5′-Cy3- and 5′-Cy5-labelled single strands were annealed by heating to 75 °C in FRET buffer (10 mM HEPES pH 7.0, 2 mM MgCl2) and cooled down to room temperature for at least 20 min. The 5′-Cy3/Cy5-labelled RNA was diluted to 100 nM in FRET buffer and supplemented with compounds 8–28 in appropriate concentrations. Compounds 4 and 5 were used as positive controls. For the initial screening, compounds were added in final concentrations of 1000, 100, 10 and 0.001 μM (Fig. S4 ^†). If a concentration dependent reduction of the FRET signal (Cy5-emission) was observed, EC50-values were determined using ligand concentrations from 1 mM to 100 nM in 3.16-fold (semi-logarithmic) dilution series. For those compounds, the Cy3 emission was measured at 535 nm to confirm a conformational change dependent reduction in the Cy5 emission signal via Cy3 emission increase (Fig. S7 ^†). For each experiment, one DMSO negative control was carried out. The final DMSO concentration was always 2%. Excitation and emission spectra were recorded for the Cy3/Cy5-labelled RNA (100 nM) in FRET buffer to confirm excitation (Cy3) and emission (Cy5) wavelength as well as for each compound (1 μM) in FRET buffer to exclude any interference with the cyanine dyes. All measurements were performed at least as triplicates for screening and EC50-determination.
(§2) FRET experiments were analyzed using GraphPad Prism (version 8.0.1., GraphPad Software, Boston, Massachusetts USA, https://www.graphpad.com).

HCV IRES subdomain IIa [3] = test system: HCV IRES subdomain IIa; set-up: method as in PMID 25349403; conditions: previous study, cited from earlier work
[4] = test system: HCV IRES subdomain IIa in presence of total RNA from yeast; assay: Selectivity FRET assay in presence of competing total RNA from yeast; assay type: biochemical, hepatitis C virus; conditions: 1:5 m/m HCV IRES : total RNA from yeast
Description: For the HCV IRES-binding compounds (4, 5, 8–13, 8a–8c), a selectivity FRET assay in presence of total RNA from yeast (Roche) was performed. The ratio of the FRET HCV IRES subdomain IIa construct and the total RNA was set to 1 : 5 m/m. The preparation of the labelled RNA and the compounds was the same as in the binding assay. The yeast RNA was diluted to 7.88 mg L^−1 and supplemented with 100 nM HCV IRES and appropriate concentrations of the compounds (3.16-fold dilution series) in FRET buffer (Fig. S10 ^†). For each compound, triplicate measurements were performed. For each experiment, one DMSO negative control was carried out. The final DMSO concentration was always 2%.
as §2

[5] = target: Tte preQ1-Riboswitch aptamer domain; assay: MST off-target counter screen, preQ1-riboswitch aptamer domain; assay type: binding, Thermoanaerobacter tengcongensis; conditions: for preQ1-riboswitch binding / selectivity (MST-shift), in words: 1000, 100, 10 and 0.001 μM
Description: as §1

[6] = test system: SAM VI-Riboswitch aptamer domain; assay: MST off-target counter screen, SAM VI-riboswitch aptamer domain; assay type: binding, B. angulatum
Description: as §1

HCV IRES subdomain IIa [7] = test system: HCV IRES subdomain IIa; set-up: method as in PMID 16279767, PMID 24930829, PMID 27775338; conditions: previously reported, Fig. 1; read-out: EC50 (FRET assay); cited from earlier work
HCV IRES subdomain IIa [8] = target: HCV IRES subdomain IIa; set-up: method as in PMID 16279767; conditions: previously reported; read-out: KD (MS assay); cited from earlier work
[9] = 100 nM Cy3/Cy5-labelled RNA, 10 mM HEPES pH 7.0, 2 mM MgCl2, 2% DMSO, ≥ = lower limit

Compound: COc1cccc(C2NC(N)=Nc3nc4ccccc4n32)c1 (centres unmarked) [Compound 21]
FRET-signal change / conformational change of HCV IRES subdomain IIa, in words (HCV IRES subdomain IIa [2]): no large changes in FRET-signals; also recorded: no changes in the FRET-assay

Compound: Nc1nc2[nH]cnc2c(=O)[nH]1 [G]
HCV IRES subdomain IIa binding, in words (HCV IRES subdomain IIa [3]): weak binding behavior
EC50 (HCV IRES subdomain IIa [3]; read-out: EC50 HCV IRES subdomain IIa binding): 1050 µM

Compound: N=C(N)NCCC[C@H](N)C(=O)O [arginine]
HCV IRES subdomain IIa binding, in words (HCV IRES subdomain IIa [3]): no binding

Compound: Nc1nc(N2CCN(Cc3c(Cl)ccc(O)c3Cl)CC2)cc(=O)[nH]1 [Compound 9]
MST KD (HCV IRES subdomain IIa [1]): n.b.
FRET result in presence of competing total RNA, in words [4]: lower EC50-values; also recorded: reduced
EC50 (HCV IRES subdomain IIa [2]; [9]): 0.217 ± 0.041 mM
FRET-signal change / conformational change of HCV IRES subdomain IIa, in words (HCV IRES subdomain IIa [2]): signals in the FRET assay
Kd ([5]; 20 nM Cy5-labelled aptamer, read-out: KD preQ1 riboswitch (MST)): 7.8 µM
preQ1-riboswitch binding / selectivity (MST-shift), in words [5]: Weak preQ1-riboswitch binding; also recorded: binding to the preQ1-riboswitch at very high concentrations
SAM-VI-riboswitch binding (MST-shift), in words ([6]; 1000, 100, 10 and 0.001 μM): no MST shift; also recorded: no binding; also recorded: no general RNA-promiscuity

Compound: CN(C)CCCn1c(N)nc2ccccc21 [Compound 4]
FRET result in presence of competing total RNA, in words [4]: lower EC50-values
EC50 (HCV IRES subdomain IIa [2]; [9]): 0.078 ± 0.035 mM
EC50 (HCV IRES subdomain IIa [7]): 50 µM
Kd (HCV IRES subdomain IIa [8]): 100 µM and ≥ 100 µM

Compound: NC1=NC(c2ccccc2)n2c(nc3ccccc32)N1 (centres unmarked) [Compound 22]
FRET-signal change / conformational change of HCV IRES subdomain IIa, in words (HCV IRES subdomain IIa [2]): no large changes in FRET-signals; also recorded: no changes in the FRET-assay

Compound: NC1=Nc2nc3ccccc3n2C(C2CC2)N1 (centres unmarked) [Compound 18]
FRET-signal change / conformational change of HCV IRES subdomain IIa, in words (HCV IRES subdomain IIa [2]): no large changes in FRET-signals; also recorded: no changes in the FRET-assay

Compound: NC1=Nc2ccccc2C2(CC2)N1 [Compound 7]
EC50 (HCV IRES subdomain IIa [7]): 100 µM

Compound: C[S+](CC[C@H](N)C(=O)[O-])C[C@H]1O[C@@H](n2cnc3c(N)ncnc32)[C@H](O)[C@@H]1O (some centres unmarked) [SAM, reference compound]
Kd ([6]; positive control, read-out: KD of positive control binding to SAM-VI-riboswitch (MST)): 0.772 µM

Compound: CC(C)NCC(O)COc1ccc2[nH]cc(CCN)c2c1 (centres unmarked) [Compound 11]
Kd (HCV IRES subdomain IIa [1]): ≥ 100 µM
EC50 (HCV IRES subdomain IIa [2]; [9]): ≥ 0.5 mM

Compound: CN(C)CCCNc1ccc2nc(N)oc2c1 [Compound 6]
EC50 (HCV IRES subdomain IIa [7]): 25 µM

The next lines start with results.

Kd (HCV IRES subdomain IIa [1]): 134 ± 43 µM
EC50 (HCV IRES subdomain IIa [2]; [9]): 0.12 ± 0.024 mM
Compound: COc1ccc2c(C)nc(NC(=N)N)nc2c1 [Compound 8c]

Kd (HCV IRES subdomain IIa [1]): ≥ 440 µM
EC50 (HCV IRES subdomain IIa [2]; [9]): 0.413 ± 0.097 mM
Compound: CCOc1ccc2c(C)nc(NC(=N)NC)nc2c1 [Compound 8]

Kd (HCV IRES subdomain IIa [1]): ≥ 50 µM
EC50 (HCV IRES subdomain IIa [2]; [9]): ≥ 0.3 mM
Compound: Nc1cc(-c2ccc3[nH]ncc3c2)c2cc[nH]c2n1 [Compound 12]

binding to HCV IRES subdomain IIa (MST-shift), in words (HCV IRES subdomain IIa [1]): no binding
Compound: CN(C)C(=O)COC(=O)Cc1ccc(OC(=O)c2ccc(NC(=N)N)cc2)cc1 [Compound 27, Camostat, reference compound]
FRET-signal change / conformational change of HCV IRES subdomain IIa, in words (HCV IRES subdomain IIa [2]): no binding

Kd (HCV IRES subdomain IIa [1]): 189 ± 20 µM
EC50 (HCV IRES subdomain IIa [2]; [9]): 0.088 ± 0.012 mM
Compound: CCOc1ccc2c(C)nc(NC(=N)N)nc2c1 [Compound 8a]

Kd ([5]; positive control, read-out: KD of positive control binding to preQ1-riboswitch (MST)): 0.012 µM
Compound: NCc1c[nH]c2nc(N)[nH]c(=O)c12 [preQ1]

MST KD (HCV IRES subdomain IIa [1]): n.b.
EC50 (HCV IRES subdomain IIa [2]; [9]): ≥ 0.5 mM
Compound: NC(=O)c1c[nH]c2ccc(NC(=O)CCc3cc4n(n3)CCCNC4)cc12 [Compound 10]
Cy3-emission change in FRET assay, in words (HCV IRES subdomain IIa [2]; Cy3 emission at 535 nm): no increase of Cy3-emission
FRET-signal change / conformational change of HCV IRES subdomain IIa, in words (HCV IRES subdomain IIa [2]): signals in the FRET assay

lipophilic ligand efficiency LLE (HCV IRES subdomain IIa [1]): 2.9
Kd (HCV IRES subdomain IIa [1]): 88 ± 2 µM
EC50 (HCV IRES subdomain IIa [2]; [9]): 0.061 ± 0.019 mM
Compound: CNC(=N)Nc1nc(C)c2ccc(OC)cc2n1 [Compound 8b]

Kd (HCV IRES subdomain IIa [1]): ≥ 100 µM
EC50 (HCV IRES subdomain IIa [2]; [9]): ≥ 1 mM
EC50 (HCV IRES subdomain IIa [2]; as printed in text in mM): ≥ 1 mM
Compound: NC1=NC(c2cn[nH]c2-c2cccc(O)c2)n2c(nc3ccccc32)N1 (centres unmarked) [Compound 13]

Kd (HCV IRES subdomain IIa [1]): ≥ 100 µM
binding to HCV IRES subdomain IIa (MST-shift), in words (HCV IRES subdomain IIa [1]): some weak binding
EC50 (HCV IRES subdomain IIa [2]; [9]): ≥ 0.5 mM
preQ1-riboswitch binding / selectivity (MST-shift), in words [5]: selectivity over the preQ1-riboswitch
Compound: N=C(N)NC(=O)c1nc(Cl)c(N)nc1N [Compound 26, amiloride, reference compound]
